From ChEMBL document CHEMBL3627608, “Crystal structures of human RIP2 kinase catalytic domain complexed with ATP-competitive inhibitors: Foundations for understanding inhibitor selectivity” (Bioorg Med Chem, 2015)

Key:
[1] = biological target: T1, Ephrin type-A receptor 6 (Homo sapiens) (UniProt Q9UF33); test: Inhibition of EPHA6 (unknown origin) at 10 uM after 120 mins P33 radiolabeled kinase activity assay
T1 sequence (whole entry): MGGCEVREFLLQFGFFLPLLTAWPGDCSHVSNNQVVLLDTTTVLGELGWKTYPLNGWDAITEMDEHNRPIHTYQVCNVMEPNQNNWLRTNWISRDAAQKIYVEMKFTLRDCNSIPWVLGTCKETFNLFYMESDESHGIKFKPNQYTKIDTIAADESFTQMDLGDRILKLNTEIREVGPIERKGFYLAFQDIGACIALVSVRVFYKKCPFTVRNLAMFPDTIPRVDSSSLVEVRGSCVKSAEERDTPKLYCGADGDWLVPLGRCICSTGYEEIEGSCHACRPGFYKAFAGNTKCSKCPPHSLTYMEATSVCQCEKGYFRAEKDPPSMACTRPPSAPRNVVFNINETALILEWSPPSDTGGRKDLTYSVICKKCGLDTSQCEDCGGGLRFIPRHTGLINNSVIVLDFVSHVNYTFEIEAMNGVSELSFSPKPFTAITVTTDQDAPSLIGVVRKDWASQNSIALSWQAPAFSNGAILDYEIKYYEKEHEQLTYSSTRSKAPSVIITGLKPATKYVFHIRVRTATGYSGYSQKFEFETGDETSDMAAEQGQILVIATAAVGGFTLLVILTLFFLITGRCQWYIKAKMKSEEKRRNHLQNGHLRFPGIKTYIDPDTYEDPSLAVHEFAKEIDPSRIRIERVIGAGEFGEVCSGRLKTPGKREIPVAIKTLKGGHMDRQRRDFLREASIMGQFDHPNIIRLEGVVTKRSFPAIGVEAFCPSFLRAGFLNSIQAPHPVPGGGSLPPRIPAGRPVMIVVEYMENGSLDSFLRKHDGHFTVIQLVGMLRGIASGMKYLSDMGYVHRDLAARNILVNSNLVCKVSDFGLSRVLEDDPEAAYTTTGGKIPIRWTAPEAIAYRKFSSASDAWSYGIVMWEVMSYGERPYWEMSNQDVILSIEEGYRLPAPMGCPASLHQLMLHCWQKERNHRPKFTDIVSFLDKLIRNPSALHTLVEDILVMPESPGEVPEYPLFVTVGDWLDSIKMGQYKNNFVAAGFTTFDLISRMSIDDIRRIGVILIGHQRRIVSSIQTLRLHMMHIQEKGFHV

[2] = biological target: PAS domain-containing serine/threonine-protein kinase (Homo sapiens) (UniProt Q96RG2); test: Inhibition of PASK (unknown origin) at 10 uM after 120 mins P33 radiolabeled kinase activity assay
[3] = biological target: T2, Serine/threonine-protein kinase PLK4 (Homo sapiens) (UniProt O00444); test: Inhibition of PLK4 (unknown origin) at 10 uM after 120 mins P33 radiolabeled kinase activity assay
T2 sequence (whole entry): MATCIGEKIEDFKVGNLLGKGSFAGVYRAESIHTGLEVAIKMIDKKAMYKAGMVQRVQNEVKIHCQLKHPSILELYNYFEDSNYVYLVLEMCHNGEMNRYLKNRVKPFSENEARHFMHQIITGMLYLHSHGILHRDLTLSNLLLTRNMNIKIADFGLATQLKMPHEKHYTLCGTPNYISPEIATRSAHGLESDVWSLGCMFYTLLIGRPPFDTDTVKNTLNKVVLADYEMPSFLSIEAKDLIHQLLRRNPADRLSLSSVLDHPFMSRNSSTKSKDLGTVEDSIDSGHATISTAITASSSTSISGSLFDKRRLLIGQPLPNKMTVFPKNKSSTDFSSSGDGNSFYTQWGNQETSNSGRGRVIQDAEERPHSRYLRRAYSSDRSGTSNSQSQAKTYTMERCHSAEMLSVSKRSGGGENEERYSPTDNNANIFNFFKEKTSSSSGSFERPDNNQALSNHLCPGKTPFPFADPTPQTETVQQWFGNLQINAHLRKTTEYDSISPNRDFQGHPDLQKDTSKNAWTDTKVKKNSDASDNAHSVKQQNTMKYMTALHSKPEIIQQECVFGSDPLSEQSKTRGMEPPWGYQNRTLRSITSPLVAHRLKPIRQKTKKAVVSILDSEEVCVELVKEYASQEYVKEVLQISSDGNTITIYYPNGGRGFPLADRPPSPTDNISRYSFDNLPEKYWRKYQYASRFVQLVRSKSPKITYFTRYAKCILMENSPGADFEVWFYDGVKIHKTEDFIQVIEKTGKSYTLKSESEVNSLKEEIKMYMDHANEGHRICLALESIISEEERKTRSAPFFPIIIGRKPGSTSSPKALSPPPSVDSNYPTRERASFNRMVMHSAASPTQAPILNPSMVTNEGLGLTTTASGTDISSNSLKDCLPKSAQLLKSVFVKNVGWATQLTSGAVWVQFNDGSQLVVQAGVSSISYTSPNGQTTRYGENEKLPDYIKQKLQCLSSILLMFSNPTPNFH

[4] = biological target: Tyrosine-protein kinase SYK (Homo sapiens) (UniProt P43405); test: Inhibition of SYK (unknown origin) at 10 uM after 120 mins P33 radiolabeled kinase activity assay

Chain of PAS domain-containing serine/threonine-protein kinase (Homo sapiens) (Q96RG2 whole entry, the tested form may be a part): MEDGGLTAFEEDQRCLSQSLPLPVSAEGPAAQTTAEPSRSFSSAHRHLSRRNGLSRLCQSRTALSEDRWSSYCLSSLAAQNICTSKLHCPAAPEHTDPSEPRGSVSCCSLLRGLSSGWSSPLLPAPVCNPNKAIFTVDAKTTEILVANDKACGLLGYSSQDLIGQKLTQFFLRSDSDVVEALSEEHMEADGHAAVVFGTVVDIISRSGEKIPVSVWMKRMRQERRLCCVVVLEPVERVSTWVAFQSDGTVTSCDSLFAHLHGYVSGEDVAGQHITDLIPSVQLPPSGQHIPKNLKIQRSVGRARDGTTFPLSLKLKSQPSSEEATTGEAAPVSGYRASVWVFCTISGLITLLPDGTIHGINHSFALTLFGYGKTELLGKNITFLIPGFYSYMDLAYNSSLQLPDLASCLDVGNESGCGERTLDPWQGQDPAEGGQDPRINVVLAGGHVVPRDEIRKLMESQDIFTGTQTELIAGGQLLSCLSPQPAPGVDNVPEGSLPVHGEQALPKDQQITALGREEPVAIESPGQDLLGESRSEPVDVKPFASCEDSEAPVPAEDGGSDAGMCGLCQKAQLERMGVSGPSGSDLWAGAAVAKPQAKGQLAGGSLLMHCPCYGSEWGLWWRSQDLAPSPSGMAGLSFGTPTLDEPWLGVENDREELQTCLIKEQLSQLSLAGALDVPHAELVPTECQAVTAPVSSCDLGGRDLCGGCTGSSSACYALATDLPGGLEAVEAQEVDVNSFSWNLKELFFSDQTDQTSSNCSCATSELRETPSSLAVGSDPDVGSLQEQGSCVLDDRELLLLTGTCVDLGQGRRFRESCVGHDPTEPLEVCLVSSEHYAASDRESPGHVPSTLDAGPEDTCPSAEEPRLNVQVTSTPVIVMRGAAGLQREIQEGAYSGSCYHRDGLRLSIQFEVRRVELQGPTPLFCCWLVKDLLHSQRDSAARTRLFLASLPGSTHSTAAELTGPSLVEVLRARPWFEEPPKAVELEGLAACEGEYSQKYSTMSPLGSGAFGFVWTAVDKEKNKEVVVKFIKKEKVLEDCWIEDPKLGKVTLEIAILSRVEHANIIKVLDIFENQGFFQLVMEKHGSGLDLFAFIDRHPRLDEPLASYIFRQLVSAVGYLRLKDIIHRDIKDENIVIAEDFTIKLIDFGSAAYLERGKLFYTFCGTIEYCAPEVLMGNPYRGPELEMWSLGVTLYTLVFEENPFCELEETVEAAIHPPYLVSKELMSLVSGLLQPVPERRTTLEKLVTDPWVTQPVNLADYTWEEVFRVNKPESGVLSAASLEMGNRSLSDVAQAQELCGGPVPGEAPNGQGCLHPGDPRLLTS

| inhibition [1] [%] | inhibition [2] [%] | inhibition [3] [%] | inhibition [4] [%] | SMILES |
| --- | --- | --- | --- | --- |
| 31.7 | -2.42 | 17.3 | 5.53 | COCCNC(=O)c1ccc2c(c1)nc(-c1cnc(-c3ccc(Cl)cc3)[nH]1)n2CCOC |
| 95.8 | -0.14 | 97 | 21.4 | CS(=O)(=O)c1cccc(Nc2nccc(-c3sc(N4CCOCC4)nc3-c3cccc(NS(=O)(=O)c4c(F)cccc4F)c3)n2)c1 |
| 93.7 | 10.9 | 19.3 | 6.66 | CC(C)(C)c1cc(NC(=O)Nc2ccc(Oc3ccncc3)cc2)no1 |
